{"source": "ChEMBL document CHEMBL3817781", "about": "“Identifying Interactions that Determine Fragment Binding at Protein Hotspots” (J Med Chem, 2016)", "target": "T1, Pantothenate synthetase (Mycobacterium tuberculosis, UniProt P9WIL5)", "T1 sequence (P9WIL5 whole entry)": "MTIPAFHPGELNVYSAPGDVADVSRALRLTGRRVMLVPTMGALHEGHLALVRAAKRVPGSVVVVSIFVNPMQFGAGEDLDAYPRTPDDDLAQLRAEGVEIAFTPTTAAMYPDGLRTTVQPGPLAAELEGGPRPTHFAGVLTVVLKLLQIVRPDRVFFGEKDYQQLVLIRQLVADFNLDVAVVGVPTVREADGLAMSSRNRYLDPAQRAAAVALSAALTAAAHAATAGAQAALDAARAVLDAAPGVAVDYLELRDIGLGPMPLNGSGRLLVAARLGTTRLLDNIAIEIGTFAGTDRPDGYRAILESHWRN", "assay": "Inhibition of Mycobacterium tuberculosis pantothenate synthetase expressed in Escherichia coli"}
{"smiles": "COc1ccc2c(c1)cc(C(=O)NS(=O)(=O)Cc1ccc(C(F)(F)F)cc1)n2CC(=O)O", "values": [{"measurement": "IC50", "result": 250, "unit": "nM"}]}
